Our source for the melting point values is a melting point compilation (Tetko et al.; mined from patent text by program, amines drawn as free bases though some values may be those of a salt).

Bounds are passed on as bounds.

Usually melting point stands for the temperature, or range, at which the solid turns liquid.

As for `CC(C)N1CCN(Cc2ccc(NC(=O)c3cccc4cc(Oc5cc(N)ncn5)ccc34)cc2C(F)(F)F)CC1`, the melting point lay within 185 to 189 °C.
Turning to `C[C@@H]1CO[C@]2(CC[C@@H](OCc3ccccc3)C2)N1C(=O)c1ccccc1`, the melting point fell in the range of 85 to 86 °C.
With `COC(=O)c1cn(CC(F)(F)F)c2c(C)cc(F)cc2c1=O`, the melting point fell in the range of 168 to 171 °C.
Consider `CC(C)C[C@H](O)C(=O)N[C@@H](C)C(=O)N[C@@H]1C(=O)NCCS[C@@H]1c1ccccc1`, for which the melting point fell in the range of 93 to 99 °C.
As for `CCCCCCCCNC(=O)CCCC(C)(C)c1ccc(O)cc1O`, the figure is 110 to 113 °C; as for `CC12CCC(F)CC1=CCC1C2CCC2(C)C(O)CCC12` (configuration not stated), 165 to 166 °C.
As for `CCn1c(-c2cc(OC)c(OC)cc2S(N)(=O)=O)cc(=Nc2c(C)cc(C)c(S(N)(=O)=O)c2C)n(C)c1=O`, the figure is 173 to 178 °C.
Regarding `O=C(CCCCCS(=O)(=O)Nc1ccccc1)NO`, the melting point was in the range of 97 to 98 °C.
The figure for `O=C(c1cccc(Cc2ccc(=O)[nH]n2)c1)c1c(Cl)cc(Cl)cc1Cl` is 149 to 151 °C.
For `CCSc1ccc(-c2coc3ccc(-c4nnc(C)o4)cc23)cc1`, the melting point was in the range of 144 to 145 °C.
As to `O=C(Nc1ccccc1)N1C(=O)C2(CCCCC2)NC12CCCCC2`, the melting point lay in the range of 129 to 130 °C.
In the case of `O=[N+]([O-])c1ccc(SCc2c[nH]cn2)nc1`, the melting point lay within 155 to 156 °C.
Consider `O=C1c2cc(O)ccc2OCC1Cc1nccs1` (configuration not stated), for which the melting point fell in the range of 150 to 152 °C.
As to `O=C1c2ccccc2C(O)N1CCCN1CCN(c2ccc(F)cc2)CC1` (configuration not stated), the melting point turned out to be 155 °C.
In the case of `CCOC(=O)[C@H]1C2C[C@@H](O)[C@](O)(C(=O)OCc3ccccc3)[C@@H]21` (some centres not stated), the melting point was in the range of 112 to 114 °C.
Take `CC(=O)NC[C@H]1CN(c2ccc(C3=CCN(C(=O)COC(C)=O)CC3)c(F)c2)C(=O)O1`: the melting point lay within 188 to 191 °C.
As for `COc1c(C2=NC(C)(C)CO2)ccc(C2=NC(C)(C)CO2)c1OC`, the figure is 84.5 to 85.5 °C.
As for `CCn1cc(C(=O)NCc2ccc(Cl)cc2)c(=O)c2cc(C#CCOC(=O)CCC(=O)O)sc21`, the figure is 180 to 182 °C; as for `NS(=O)(=O)c1ccc(-c2cnn(-c3ccc(F)c(F)c3)c(=O)c2-c2ccc(F)cc2)cc1`, 177 to 181 °C; as for `CNC1=NS(=O)N=C1NCCSCc1csc(NC(=N)N)n1` (configuration not stated), 175 to 177 °C.
Turning to `O=C1CCCc2nc3ccccc3c(NCc3ccccc3Cl)c21`, the melting point is 150 to 161 °C.
The figure for `Nc1c(OCCCl)cccc1[N+](=O)[O-]` is 71 to 73 °C.
Regarding `Cc1ccc2ncnc(N3CCc4ccc(Cl)cc43)c2c1`, the melting point fell in the range of 138 to 141 °C.
`C[C@H](CN1CC(C#N)C1)NC(=O)c1c[nH]c2ncc(-c3nn(C)c4cc(Cl)ccc34)nc12` displayed a melting point of 235 to 238 °C.
As for `O=C(c1ccc(F)cc1)N1CCc2cc(S(=O)(=O)N3CC(c4ccccc4)NC3=O)ccc21` (configuration not stated), the figure is 134 °C; as for `CC(C)(C)OC(=O)Nc1ccc(F)cc1C(F)(F)F`, 61 to 62 °C; as for `CCN1C(=O)C(=O)N(c2c(C)cccc2C)C1=S`, 103 to 105 °C.
On to `Nc1c(C(=O)CCC(=O)O)cccc1C(=O)c1ccc(Cl)cc1`, for which the melting point lay within 172 to 177 °C.
The figure for `COc1ccc(C=O)c(O[Si](C)(C)C(C)(C)C)c1O[Si](C)(C)C(C)(C)C` is 74 to 75 °C; for `CNC(=O)c1cnn(-c2ccccc2)c1Cl` it is 182 to 183 °C; for `Cc1cc(OS(=O)(=O)c2ccccc2)cc2c(C3CCN(C)CC3)c[nH]c12` it is 118 °C.
The figure for `O=c1cc(O)c2c([nH]1)CCCCC2` is > 270 °C.
The figure for `COc1cc2c(cc1OC)C(=O)C(Cc1ccncc1)C2` (configuration not stated) is 192 to 193 °C.
`N[C@@H](Cc1cccc(C(F)(F)F)c1)[C@H](O)c1ccc(F)cc1` (racemic): the melting point lay within 76 to 77 °C.
As for `NS(=O)(=O)c1ccc(-c2cn(-c3nc(-c4ccc(C(F)(F)F)cc4)cc(C(F)(F)F)n3)cn2)cc1`, the melting point is 292 °C.
For `Cc1ccc(N2C(=O)C3=C(SCCO3)C2OC(=O)N2CCN(C)CC2)nc1` (configuration not stated), the melting point was 183 °C.
As for `CN1CCN(c2nn(S(=O)(=O)c3ccccc3)c3cc(Cl)ccc23)CC1`, the figure is 139 to 141 °C; as for `COC1=C(OC)C(=O)C(CCCCCCCCCC=O)=C(C)C1=O`, 44.5 to 46.5 °C; as for `CC(=O)CC(=O)NCCNC(=O)OCc1ccccc1`, 116 to 118 °C.
The figure for `O=C(NCCc1ccccc1Cl)c1c(Cl)ccc2nc(N3CCC(C(=O)O)CC3)ccc12` is 250 to 253 °C.
In turn, `CCCc1nn(-c2ccc(C(F)(F)F)cn2)cc1CCCOc1c(CC)cccc1CC(=O)O` returned a melting point of 146 to 147 °C.
The compound `CCCCOc1ccc2ccccc2c1-c1c(OCCCC)ccc2ccccc12` registered a melting point of 85 °C.
As for `CC1=NN(CC2CC2)CC2=C3C1=NN(c1ccc(C(C)C)cc1Br)C(=O)N3CC2`, the figure is 89 to 90 °C.
For the compound `CCc1n[nH]c(CC)c1CCCCCCOc1ccc([N+](=O)[O-])cc1Cl`, the melting point was in the range of 130 to 132 °C.
As for `O=C(OC1CCC1)N1CCC(c2nc3cc(-c4ccc(-n5cnnn5)cc4F)ccc3o2)CC1`, the figure is 165 to 169 °C; as for `O=c1c2cccc3c2n(c(=O)n1CC(O)CO)-c1cc(C(F)(F)F)ccc1S3(=O)=O` (configuration not stated), 223 to 226 °C.
In turn, `COc1ccc(S(=O)(=O)C2(C(=O)NO)CCN(Cc3ccccc3)CC2)cc1` had a melting point of 90 to 95 °C.
As for `CCCCCCCCCCCC(=O)N1CCc2nc3ccccc3c(C)c2CC1`, the figure is 100 °C.
The compound `NC(=O)C(Sc1ccccc1)c1cccc(C(=O)c2ccc(Cl)cc2)c1N` (configuration not stated) came in with a melting point of 189 to 191 °C.
As for `O=[N+]([O-])c1cc(Cl)c(Oc2ccccc2)c(Cl)c1Oc1ccccc1`, the figure is 164 °C; as for `O=[N+]([O-])c1c(O)ccc2cc(-c3ccc(O)cc3)ccc12`, 199 to 201 °C; as for `N#Cc1nn(-c2c(Cl)cc(C(F)(F)F)cc2Cl)c(N)c1-c1ccccc1`, 198 to 199 °C.
The compound `O=C(c1ccc(Cc2ccc(F)cc2)o1)c1occ(Br)c(=O)c1O` came in with a melting point of 191 to 192 °C.
Turning to `COC(=O)/C=C\C(=O)Nc1ccc2c(=O)n3c(nc2c1)C(=Cc1ccccc1)CC3`, the melting point lay in the range of 233 to 235 °C.
As to `O=C(C=Cc1ccc(CN(CCO)C2CCCCC2)cc1)Nc1ccc(-c2ccc(Cl)cc2)cc1`, the melting point lay within 178 to 179 °C.
`CCN1c2ncc(COc3cccnc3)cc2C(=O)N(C)c2ccc(Cl)nc21` registered a melting point of 183 to 184 °C.
`COc1ccc(S(=O)(=O)N(CC(=O)NO)Cc2ccc3ccccc3n2)cc1`: the melting point lay in the range of 177 to 178 °C.
As for `O=C1Nc2cccnc2N(C(=O)N2CCC(CCN3CCCCC3)CC2)c2ccccc21`, the melting point lay in the range of 178 to 180 °C.
The figure for `COc1ccc2nc(COc3ccc(CC(C)C(N)=S)cc3)n(C)c2c1` (configuration not stated) is 204 to 206 °C; for `C=CCc1c(-c2cc(=O)c3c(O)c(CC=C)c(O)c(CC=C)c3o2)ccc(OC)c1O` it is 122 to 123 °C; for `O=C(Oc1cccc(F)c1)c1ccc(F)cc1` it is 43.5 to 45.2 °C.
The figure for `COc1ccc(CC(C)N)cc1S(N)(=O)=O` (configuration not stated) is 180 °C.
As for `CCN1OCC(=Cc2cc(C(C)(C)C)c(O)c(C(C)(C)C)c2)C1=O`, the figure is 189 to 191 °C; as for `Cc1sc(N)c(C(=O)c2ccc(Cl)s2)c1C`, 125 to 127 °C; as for `CCCc1ccccc1OCCCOc1ccc2c(=O)cc(C(=O)OCC)oc2c1`, 73 to 75 °C.
`COc1cc(CBr)c(Br)cc1OCc1ccccc1` registered a melting point of 103 to 105 °C.
As for `CCC(=O)Oc1ccc(-c2nn(C3CCCC3)c3c(F)cccc23)cc1`, the figure is 60 to 61 °C; as for `O=C(O)CC1c2ncccc2S(=O)(=O)N1c1ccccc1` (configuration not stated), 123 to 128 °C.
In the case of `CCS(=O)(=O)Nc1ccc([N+](=O)[O-])cc1SC1CCCCC1`, the melting point is 119 to 120 °C.
For `CC(C)(C)n1nnc(C(C=O)=C(c2ccc(F)cc2)c2ccc(F)cc2)n1`, the melting point fell in the range of 131 to 133 °C.
As for `Brc1ccc2c(c1)[nH]c1cc(Br)ccc12`, the figure is 224 to 225 °C; as for `Clc1ccc(NC2CCCCC2)nn1`, 161 to 163 °C.
Regarding `COc1cc2cc(CO)c(CO)c(-c3ccnc(-n4c(=O)cc(C(=O)N5CCN(CCO)CC5)c5ccccc54)c3)c2cc1OC`, the melting point lay within 150 to 153 °C.
`O=C(O)c1c(O)ccc2ccccc12`: the melting point worked out at 218 °C.
Regarding `Cc1sc(CCc2ccc(C=CC=C3OC(=O)NC3=O)cc2)nc1-c1ccccc1`, the melting point lay in the range of 161 to 162 °C.
As for `O=C1Nc2ccccc2SC1CCN1C=CN(c2ccc(F)cc2)C=C1` (configuration not stated), the figure is 158 to 159 °C; as for `O=C(Cl)Cc1ccc([N+](=O)[O-])cc1`, 47.5 to 49 °C; as for `Cc1ccc(S(=O)(=O)NC(COS(=O)(=O)c2ccc(C)cc2)Cc2ccccc2)cc1` (configuration not stated), 95 to 96 °C.
The figure for `CCn1ncc2c3onc(-c4cccc(OC)c4)c3cnc21` is 130 to 131 °C; for `CC(C)c1cccc(C(C)C)c1NC(=O)CC(=O)CC(c1ccccc1)c1ccccc1` it is 146 to 148 °C.
As for `CCOC(=O)c1cc2n(C)c3ccc(OC)cc3c(=O)n2n1`, the figure is 249 to 251 °C; as for `CC(C)c1csc2[nH]c(=O)c(=O)[nH]c12`, > 250 °C; as for `CCCOc1ccccc1-c1nc2c(CCCCc3ccccc3)cccc2c(=O)[nH]1`, 82 °C.
For `CCCc1ccc2nc(Cl)cn2n1`, the melting point lay within 73.9 to 80 °C.
As for `O=C(Cn1c(-c2ccc(F)cc2)ncc(NC(=O)OCc2ccccc2)c1=O)NC(Cc1ccccc1)C(=O)C1=NCCO1` (configuration not stated), the figure is 215 to 220 °C; as for `O=[N+]([O-])c1ccc(N2C[C@@H]3C[C@H]2CS3)cc1F`, 97 to 98 °C.
As to `CCCc1nc(N2CCc3ccccc3CC2)c(C#N)c(=O)[nH]1`, the melting point lay within 191 to 193 °C.
